# Where a name gives a salt, the structure may show the parent alone. Read-outs that look alike come from different tables or passages of the source.
# Tests used:
# [1] = test system: outer hair cells of cochlear explants of P3 FVB mice; assay: Outer hair cell survival in whole-mount cochlear explants treated with aminoglycosides; type: cell-based, mouse
# Procedure: A) Representative confocal images of the middle turn of whole-mount cochlear explants from P3 FVB mice treated with medium alone, […] gentamicin, 0.2 μM Momelotinib and […] gentamicin for 24 h. […] HCs are labeled with phalloidin. […] (Mann-Whitney U Test, *P<0.05, **P<0.01) shown in a micromolar concentration.
# Now referring to FIG. 2A-B, Momelotinib protects from aminoglycoside toxicity in cochlear explants of P3 FVB mice. FVB mice were bred in the Creighton University animal facility. Procedures were approved by the IACUC committee of the Creighton University. 2A) Inner ears were collected from the post-natal day 3 (P3) FVB mice and transferred onto a filter (Millicell, PICM03050; Millipore) soaked in culturing medium. The filter was placed in 6-well culture plates with 1.2 mL medium outside the filter. The culturing medium is DMEM (10565-018; gibco) with 1% FBS (16000-044; gibco), 500 μL ampicillin (A5354; Sigma), 100 μL N-2 supplement (17502-048, gibco) and 100 μL B-27 supplement (17504-044, gibco). After culturing for 24 h at 37° C. in 5% CO2, 1 mL culturing medium with MMB at 0.2 μM, […] MMB alone or without MMB and added both inside and outside the filter to preincubate for another 1 h before adding gentamicin solution. A 50 μg/mL gentamicin (G1397, Sigma) was chosen to induce around 35% hair cell death after incubation for 24 h at 37° C. For compound CYT-387 or MMB (A10263, AdooQ). The procedures were performed under sterile condition in the culture hood. Cochleae were then fixed with 4% PFA for 30 min and stained with Alexa Fluor 555 phalloidin in to determine the survival rate of the hair cells. All the cochleae images were taken with Zeiss 700 confocal microscopy. […] The survival OHCs were then normalized to 100 μm length to further compare between different experimental conditions. 2B) OHC survival (OHC number per 100 μm length of cochlear middle turn) after treatment with Momelotinib at 0.0016, 0.008, 0.04, 0.2, 1.0, 5.0, 10.0 and 20.0 μM for 1 hour and co-incubated with 100 μM GM for 1 hour, or co-incubated with 600 μM kanamycin (K0254, Sigma) for 1 hour. […]
# [2] = test system: zebrafish lateral line neuromast hair cells; assay: Zebrafish lateral line neuromast hair cell counts after aminoglycoside; type: in vivo, Danio rerio; settings: 5dpf larvae, 1 hour pre-incubation 0.002-13.3 μM
# Procedure: . Each treatment was pretreated with MMB at the prescribed doses prior to co-treatment with the aminoglycoside. Control animal were treated with DMSO (−) or KM or GM alone (+) Animals were then fixed and immunostained for GFP and otoferlin. Quantification was done by assessing three neuromasts in the same anatomic location of each animal (n=5). The data is plotted as mean+SD. Statistical testing was done with One-way ANOVA and Dunnett post-hoc test (*P<0.05, **P<0.01,***P<0.001).
# FIG. 4A-B show Fedratinib (FED) protected zebrafish mechanosensory hair cells against kanamycin (KM) in vivo. 5dpf Tg(Brn3c:mGFP) larvae were used for the experiments. Each treatment was pretreated FED at the prescribed doses prior to co-treatment with the aminoglycoside. […] Control animal were treated with DMSO (−) or KM alone (+) Animals were then fixed and immunostained for GFP and otoferlin. Quantification was done by assessing three neuromasts in the same anatomic location of each animal (n=5). […]
# These two markers were used to detect and count neuromast HCs to reduce the chances of missing some of the HCs after the treatment since we previously noticed that incubation with the compounds can affect GFP expression more difficult to detect under a fluorescence microscope (26). […] Compounds were then evaluated on efficiency and potency, with the top-rated compounds showing high protection at lower concentrations. […]
# [3] = 14-day oral toxicity and auditory brainstem response (ABR) thresholds in mice; type: in vivo, C57BL/6 mice
# Procedure: Auditory brainstem response (ABR) thresholds were recorded for 3 frequencies (8 kHz, 16 kHz, and 32 kHz) before and after a 14-day MMB treatment protocol. […] Statistical analysis was done with repeated measures ANOVA between groups.
# 4-week-old C57BL/6 mice obtained from The Jackson Laboratory were used, with a mix of males and females across experiments. Mice were administered a 14-day Momelotinib treatment protocol. Auditory Brainstem Response thresholds were recorded at 8 kHz, 16 kHz, and 32 kHz for a baseline sample of mice and the mice administered Momelotinib.
# JAK1 = JAK1 (Homo sapiens, UniProt P23458); settings: cited from earlier work
# Chain of JAK1 (P23458 whole entry, species assumed): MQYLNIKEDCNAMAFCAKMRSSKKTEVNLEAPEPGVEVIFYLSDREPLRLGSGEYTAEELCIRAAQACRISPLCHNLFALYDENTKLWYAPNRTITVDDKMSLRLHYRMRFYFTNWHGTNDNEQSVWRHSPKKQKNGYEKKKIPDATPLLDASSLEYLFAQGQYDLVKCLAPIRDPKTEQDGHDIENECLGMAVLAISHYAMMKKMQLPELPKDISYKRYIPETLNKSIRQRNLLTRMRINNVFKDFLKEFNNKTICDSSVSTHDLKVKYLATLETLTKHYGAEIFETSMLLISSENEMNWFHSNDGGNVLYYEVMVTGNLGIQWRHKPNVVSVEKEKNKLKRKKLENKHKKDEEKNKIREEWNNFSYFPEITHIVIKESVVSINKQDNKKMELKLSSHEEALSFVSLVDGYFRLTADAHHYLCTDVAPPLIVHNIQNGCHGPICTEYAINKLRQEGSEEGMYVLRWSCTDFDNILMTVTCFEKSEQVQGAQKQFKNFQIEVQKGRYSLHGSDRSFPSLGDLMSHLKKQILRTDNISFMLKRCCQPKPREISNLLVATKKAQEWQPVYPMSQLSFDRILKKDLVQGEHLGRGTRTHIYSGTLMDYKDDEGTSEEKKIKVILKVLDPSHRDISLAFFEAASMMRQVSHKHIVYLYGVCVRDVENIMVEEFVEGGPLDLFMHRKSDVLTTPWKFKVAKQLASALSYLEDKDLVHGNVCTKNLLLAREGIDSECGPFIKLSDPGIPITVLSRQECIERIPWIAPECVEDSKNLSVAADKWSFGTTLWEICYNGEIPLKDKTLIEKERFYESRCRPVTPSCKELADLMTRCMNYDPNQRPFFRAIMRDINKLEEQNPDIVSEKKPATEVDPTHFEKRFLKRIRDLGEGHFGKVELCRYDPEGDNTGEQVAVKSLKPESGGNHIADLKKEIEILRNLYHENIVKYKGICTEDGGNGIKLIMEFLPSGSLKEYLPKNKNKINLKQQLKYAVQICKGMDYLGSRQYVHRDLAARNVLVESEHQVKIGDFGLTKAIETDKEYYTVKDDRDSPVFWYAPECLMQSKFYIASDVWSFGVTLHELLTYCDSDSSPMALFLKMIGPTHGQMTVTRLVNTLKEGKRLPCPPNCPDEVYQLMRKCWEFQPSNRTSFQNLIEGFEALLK
# JAK2 = JAK2 (Homo sapiens, UniProt O60674); settings: cited from earlier work
# Chain of JAK2 (O60674 whole entry, species assumed): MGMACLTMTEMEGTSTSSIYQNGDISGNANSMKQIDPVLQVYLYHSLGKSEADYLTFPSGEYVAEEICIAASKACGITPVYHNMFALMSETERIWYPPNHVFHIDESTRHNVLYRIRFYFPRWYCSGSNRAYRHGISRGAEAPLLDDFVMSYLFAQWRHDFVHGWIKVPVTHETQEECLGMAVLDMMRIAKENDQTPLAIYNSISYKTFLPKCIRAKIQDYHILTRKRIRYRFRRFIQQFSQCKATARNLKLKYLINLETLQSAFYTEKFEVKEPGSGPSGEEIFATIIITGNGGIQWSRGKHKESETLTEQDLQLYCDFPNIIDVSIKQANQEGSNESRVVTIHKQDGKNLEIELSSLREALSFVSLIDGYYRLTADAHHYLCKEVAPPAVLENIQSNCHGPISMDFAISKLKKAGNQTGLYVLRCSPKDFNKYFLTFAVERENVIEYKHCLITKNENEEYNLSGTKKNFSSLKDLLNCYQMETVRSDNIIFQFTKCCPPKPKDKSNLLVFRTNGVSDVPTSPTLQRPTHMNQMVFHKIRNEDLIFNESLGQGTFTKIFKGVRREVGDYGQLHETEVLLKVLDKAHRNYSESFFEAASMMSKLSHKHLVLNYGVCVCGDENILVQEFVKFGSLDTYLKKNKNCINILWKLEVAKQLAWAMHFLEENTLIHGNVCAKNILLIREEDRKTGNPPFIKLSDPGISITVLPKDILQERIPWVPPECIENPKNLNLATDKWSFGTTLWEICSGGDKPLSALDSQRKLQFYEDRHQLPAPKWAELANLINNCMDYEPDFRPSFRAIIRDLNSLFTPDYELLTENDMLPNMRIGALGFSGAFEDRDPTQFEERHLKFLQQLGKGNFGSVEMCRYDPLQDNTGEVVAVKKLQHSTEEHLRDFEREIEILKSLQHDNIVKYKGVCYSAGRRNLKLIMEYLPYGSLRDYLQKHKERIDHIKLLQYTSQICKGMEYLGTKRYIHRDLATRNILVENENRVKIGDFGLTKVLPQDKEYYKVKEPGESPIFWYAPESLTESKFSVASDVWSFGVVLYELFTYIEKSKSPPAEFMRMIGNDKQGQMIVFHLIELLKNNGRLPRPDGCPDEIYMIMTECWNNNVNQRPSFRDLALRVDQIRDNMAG
# JAK3 = biological target: T1, JAK3 (Homo sapiens, UniProt P52333); settings: cited from earlier work
# T1 sequence (P52333 1-1124): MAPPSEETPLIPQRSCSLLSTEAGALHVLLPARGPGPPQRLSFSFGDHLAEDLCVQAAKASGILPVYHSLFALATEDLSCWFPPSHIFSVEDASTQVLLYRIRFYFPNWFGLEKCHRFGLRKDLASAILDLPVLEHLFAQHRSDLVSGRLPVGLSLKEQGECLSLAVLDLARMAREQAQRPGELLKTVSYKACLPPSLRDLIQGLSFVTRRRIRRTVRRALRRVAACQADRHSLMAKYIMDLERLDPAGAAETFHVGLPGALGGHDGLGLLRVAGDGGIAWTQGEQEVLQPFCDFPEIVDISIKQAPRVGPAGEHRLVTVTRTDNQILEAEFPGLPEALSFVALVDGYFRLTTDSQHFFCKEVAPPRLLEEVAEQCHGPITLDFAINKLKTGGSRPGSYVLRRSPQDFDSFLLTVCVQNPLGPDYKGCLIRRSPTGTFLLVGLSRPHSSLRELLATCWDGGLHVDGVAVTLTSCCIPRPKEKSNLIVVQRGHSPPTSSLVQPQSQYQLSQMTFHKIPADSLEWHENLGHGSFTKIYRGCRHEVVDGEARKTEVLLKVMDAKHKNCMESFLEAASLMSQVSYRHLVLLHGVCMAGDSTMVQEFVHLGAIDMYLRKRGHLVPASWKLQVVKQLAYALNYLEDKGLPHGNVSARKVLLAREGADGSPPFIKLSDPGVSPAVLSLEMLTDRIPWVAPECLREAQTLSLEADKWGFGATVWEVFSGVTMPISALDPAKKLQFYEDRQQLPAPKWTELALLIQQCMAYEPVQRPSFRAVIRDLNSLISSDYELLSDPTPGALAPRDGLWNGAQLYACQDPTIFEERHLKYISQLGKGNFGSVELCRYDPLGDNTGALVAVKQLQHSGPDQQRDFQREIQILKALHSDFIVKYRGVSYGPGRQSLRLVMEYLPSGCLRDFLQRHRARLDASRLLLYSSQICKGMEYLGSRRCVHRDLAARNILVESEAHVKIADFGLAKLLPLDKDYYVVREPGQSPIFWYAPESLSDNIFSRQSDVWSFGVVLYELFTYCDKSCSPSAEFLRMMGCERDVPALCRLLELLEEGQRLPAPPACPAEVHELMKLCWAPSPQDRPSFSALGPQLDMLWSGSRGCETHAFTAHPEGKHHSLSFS
# TYK2 = TYK2 (Homo sapiens, UniProt P29597); settings: cited from earlier work
# Chain of TYK2 (P29597 whole entry): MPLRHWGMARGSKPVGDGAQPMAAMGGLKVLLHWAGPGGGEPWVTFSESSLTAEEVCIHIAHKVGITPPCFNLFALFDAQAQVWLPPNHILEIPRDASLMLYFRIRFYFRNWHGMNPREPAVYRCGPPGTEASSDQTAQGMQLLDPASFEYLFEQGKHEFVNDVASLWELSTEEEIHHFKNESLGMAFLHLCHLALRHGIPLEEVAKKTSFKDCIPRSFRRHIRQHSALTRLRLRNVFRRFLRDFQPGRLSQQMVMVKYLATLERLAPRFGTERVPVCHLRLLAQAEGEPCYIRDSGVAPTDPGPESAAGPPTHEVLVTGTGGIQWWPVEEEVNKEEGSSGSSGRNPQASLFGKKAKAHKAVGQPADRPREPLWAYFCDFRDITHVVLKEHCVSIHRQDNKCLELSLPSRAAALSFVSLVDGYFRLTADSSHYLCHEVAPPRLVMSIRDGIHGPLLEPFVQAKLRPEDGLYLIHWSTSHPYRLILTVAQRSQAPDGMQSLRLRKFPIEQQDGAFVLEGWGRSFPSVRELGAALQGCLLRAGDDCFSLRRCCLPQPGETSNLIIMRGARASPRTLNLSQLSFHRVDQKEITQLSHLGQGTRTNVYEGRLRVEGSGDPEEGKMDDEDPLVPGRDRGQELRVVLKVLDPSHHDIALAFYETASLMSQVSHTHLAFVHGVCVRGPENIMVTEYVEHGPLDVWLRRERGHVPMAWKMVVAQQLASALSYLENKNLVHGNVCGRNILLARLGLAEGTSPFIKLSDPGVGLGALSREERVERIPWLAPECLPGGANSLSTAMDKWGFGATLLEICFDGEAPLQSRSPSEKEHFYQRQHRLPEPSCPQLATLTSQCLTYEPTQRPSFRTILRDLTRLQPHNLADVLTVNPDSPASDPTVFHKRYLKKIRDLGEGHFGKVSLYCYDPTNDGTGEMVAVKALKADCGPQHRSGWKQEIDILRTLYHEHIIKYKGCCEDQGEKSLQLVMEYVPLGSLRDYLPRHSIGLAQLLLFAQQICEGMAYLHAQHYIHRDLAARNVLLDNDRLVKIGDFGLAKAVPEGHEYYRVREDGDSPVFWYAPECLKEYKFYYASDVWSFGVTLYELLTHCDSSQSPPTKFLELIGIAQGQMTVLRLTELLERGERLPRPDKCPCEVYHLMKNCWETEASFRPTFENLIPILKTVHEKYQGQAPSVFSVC
# [4] = test system: panel of 38 non-JAK kinases; settings: cited from earlier work
# EGFR kinase = EGFR kinase (Homo sapiens, UniProt P00533); settings: measured value; read-out: IC50 in EGFR kinase inhibition assays; cited from earlier work
# Chain of EGFR kinase (P00533 25-1210): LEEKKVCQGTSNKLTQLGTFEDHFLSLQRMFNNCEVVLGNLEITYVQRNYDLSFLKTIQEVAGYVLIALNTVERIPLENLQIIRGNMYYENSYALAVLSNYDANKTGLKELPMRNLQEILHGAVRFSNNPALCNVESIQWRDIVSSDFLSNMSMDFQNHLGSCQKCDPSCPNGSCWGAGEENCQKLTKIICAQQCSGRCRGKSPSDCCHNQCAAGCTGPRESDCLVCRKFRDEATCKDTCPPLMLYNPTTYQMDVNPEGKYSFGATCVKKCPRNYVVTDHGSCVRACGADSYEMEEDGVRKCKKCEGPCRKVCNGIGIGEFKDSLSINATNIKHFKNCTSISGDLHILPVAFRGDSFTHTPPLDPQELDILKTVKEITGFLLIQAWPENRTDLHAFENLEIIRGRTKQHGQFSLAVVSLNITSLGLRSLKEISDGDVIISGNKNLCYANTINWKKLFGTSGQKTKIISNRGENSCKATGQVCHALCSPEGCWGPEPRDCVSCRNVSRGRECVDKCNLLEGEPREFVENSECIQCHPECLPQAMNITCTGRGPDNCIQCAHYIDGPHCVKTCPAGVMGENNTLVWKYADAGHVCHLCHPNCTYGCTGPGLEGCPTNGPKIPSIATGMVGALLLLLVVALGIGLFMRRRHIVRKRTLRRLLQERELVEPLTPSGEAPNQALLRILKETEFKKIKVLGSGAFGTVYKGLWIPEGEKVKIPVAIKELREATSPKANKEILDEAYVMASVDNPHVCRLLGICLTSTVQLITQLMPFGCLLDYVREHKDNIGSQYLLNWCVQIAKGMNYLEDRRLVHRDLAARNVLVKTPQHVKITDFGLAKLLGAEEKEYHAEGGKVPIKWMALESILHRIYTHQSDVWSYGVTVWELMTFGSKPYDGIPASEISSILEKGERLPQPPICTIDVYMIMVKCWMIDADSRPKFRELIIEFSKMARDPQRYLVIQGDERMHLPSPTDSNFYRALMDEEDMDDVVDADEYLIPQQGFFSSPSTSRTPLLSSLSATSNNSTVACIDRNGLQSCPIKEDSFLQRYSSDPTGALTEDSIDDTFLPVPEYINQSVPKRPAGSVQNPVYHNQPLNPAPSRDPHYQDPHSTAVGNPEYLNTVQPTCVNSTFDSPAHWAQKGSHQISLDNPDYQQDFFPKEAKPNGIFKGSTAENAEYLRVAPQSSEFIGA
compound,measurement,setting,value
N#CCNC(=O)c1ccc(-c2ccnc(Nc3ccc(N4CCOCC4)cc3)n2)cc1 [Momelotinib],toxicity to HCs of compound alone,"[1]; 0.2 μM Momelotinib alone, cochlear explants",did not show toxicity
same,hair cell loss at the middle turn region (phalloidin images),"[1]; cotreated with MMB 0.2 μM and gentamicin (GM), 24 h, P3 FVB cochlear explants",minimal levels of hair cell loss
same,protection against aminoglycoside-induced hair cell loss (OHC number per 100 μm length of cochlear middle turn),"[1]; cotreatment with Momelotinib and gentamicin or kanamycin, n=5 per group",full protection
same,protection of mechanosensory hair cells against gentamicin (GM),[2]; then GM 100 uM for 1 hour,protected
same,protection of mechanosensory hair cells against kanamycin (KM),[2]; then KM 200 or 300 uM for 1 hour or 150 uM for 6 hours,protected
same,inner ear toxicity: ABR thresholds before and after treatment,"[3]; 8 kHz, 16 kHz and 32 kHz, 14-day Momelotinib protocol",No differences
same,general toxicity in vivo,"[3]; oral, up to 100 mg/kg/day over a 14-day regimen, 4-week-old C57BL/6 mice",not toxic
CC1(C)CN(C(=O)c2ccc(-c3cccc4nc(NC(=O)C5CC5)nn34)cc2)C1 [Solcitinib],IC50,JAK1,8 to 9 nM
same,selectivity for JAK1 over JAK2,JAK2,11 fold
same,selectivity for JAK1 over JAK3,JAK3,55 fold
same,selectivity for JAK1 over TYK2,TYK2,23 fold
CC(C)N(CCC(=O)c1ccc2ccccc2c1)Cc1ccccc1 [ZM 39923 HCl],activity against JAK2,JAK2,almost no activity
Oclacitinib maleate,inhibition of a panel of 38 non-JAK kinases,[4],does not inhibit
COc1cc2ncnc(Nc3cc(Br)c(O)c(Br)c3)c2cc1OC [WHI-P97],IC50,EGFR kinase,2500 nM
COc1cc2ncnc(Nc3ccc(O)cc3)c2cc1OC [JANEX-1],activity against JAK1,JAK1,without altering the activity
same,activity against JAK2,JAK2,without altering the activity
same,IC50,JAK3,78000 nM
N#Cc1ccc(COc2ccc(-c3cccc4nc(NC(=O)C5CC5)nn34)cc2)cn1 [GLPG0634 analogue],IC50,JAK1,10 nM
same,IC50,JAK2; cell-free assay for AZD1480 and AT9283,28 nM
same,IC50,JAK3,810 nM
same,IC50,TYK2,116 nM
COc1cc2ncnc(Nc3ccc(O)c(Br)c3)c2cc1OC [WHI-P154],activity against JAK1,JAK1,no activity
same,activity against JAK2,JAK2,no activity
NC(=O)c1nc(-c2c(F)cccc2Cl)oc1Nc1ccc(C(=O)N2CCOCC2)cc1 [SAR-20347],IC50,JAK1,23 nM
same,IC50,JAK3; cell-free assay for AT9283,41 nM
same,IC50,TYK2,0.6 nM
